The values below come from patent US5932577A, “Substituted oxobutyric acids as matrix metalloprotease inhibitors” (Bayer Corporation, priority 1997, dated 1999).

pIC50: −log10 of the molar value.

Assay [1] concerns the target T1, Recombinant Human CHO Stromelysin (MMP-3) (Homo sapiens, UniProt P08254).
T1 construct: made in house; host or cells: CHO (Chinese hamster ovary) cells
Description: P218 quenched fluorescence assay (Microfluorometric Profiling Assay), MMP-3. The assay is classed as biochemical. To be noted: for pIC50: 6 μM P218, pH 6.5, 25 min at 37° C., read-out: MMP-3 Fluorogenic IC50; for inhibition at 5 µM: read-out: MMP-3 Fluorogenic, I = % inhibition. From the text:
(§1) P218 Quenched Fluorescence Assay for MMP Inhibition:
(§2) The P218 quenched fluorescence assay (Microfluorometric Profiling Assay) is a modification of that originally described by Knight, et al., FEBS Lett. 296 263, 1992 for a related substance and a variety of matrix metalloproteinases (MMPs) in cuvettes. The assay was run with each invention compound and the three MMPs, MMP-3, MMP-9 and MMP-2, analyzed in parallel, adapted as follows for a 96-well microtiter plate and a Hamilton AT® workstation.
(§3) P218 Fluorogenic Substrate:
(§4) P218 is a synthetic substrate containing a 4-acetyl-7-methoxycoumarin (MCA) group in the N-terminal position and a 3-[2,4-dinitrophenyl]-L-2,3-diaminopropionyl (DPA) group internally. This is a modification of a peptide reported by Knight (1992) that was used as a substrate for matrix metalloproteinases. Once the P218 peptide is cleaved (putative clip site at the Ala-Leu bond), the fluorescence of the MCA group can be detected on a fluorometer with excitation at 328 nm and emission at 393 nm. P218 is currently being produced BACHEM exclusively for Bayer. P218 has the structure:
(§5) H-MCA-Pro-Lys-Pro-Leu-Ala-Leu-DPA-Ala-Arg-NH2 (MW 1332.2)
Recombinant Human CHO Stromelysin (MMP-3)
Recombinant Human CHO Pro-MMP-3: Human CHO pro-stromelysin-257 (pro-MMP-3) was expressed and purified as described by Housley, et al., J. Biol. Chem. 268, 4481 (1993).
Activation of Pro-MMP-3: Pro-MMP-3 at 1.72 μM (100 μg/mL) in 5 mM Tris at pH 7.5, 5 mM CaCl2, 25 mM NaCl, and 0.005% Brij-35 MMP-3) activation buffer) was activated by incubation with TPCK (N-tosyl-(L)-phenylalanine chloromethyl ketone) trypsin (1: 100 w/w to pro-MMP-3) at 25° C. for 30 min. The reaction was stopped by addition of soybean trypsin inhibitor (SBTI; 5:1 w/w to trypsin concentration). This activation protocol results in the formation of 45 kDa active MMP-3, which still contains the C-terminal portion of the enzyme.
(§6) Hamiltion Microlab AT Plus: The MMP-Profiling Assay is performed robotically on a Hamilton MicroLab AT Plus®. The Hamilton is programmed to: (1) serially dilute up to 11 potential inhibitors automatically from a 2.5 mM stock in 100% DMSO; (2) distribute substrate followed by inhibitor into a 96 well Cytofluor plate; and (3) add a single enzyme to the plate with mixing to start the reaction. Subsequent plates for each additional enzyme are prepared automatically by beginning the program at the substrate addition point, remixing the diluted inhibitors and beginning the reaction by addition of enzyme. In this way, all MMP assays were done using the same inhibitor dilutions.
(§7) Millipore Cytofluor II. Following incubation, the plate was read on a Cytofluor II fluorometric plate reader with excitation at 340 nm and emission at 395 nm with the gain set at 80.
(§8) Microfluorometric Reaction Buffer (MRB): Dilution of test compounds, enzymes, and P218 substrate for the microfluorometric assay were made in microfluorometric reaction buffer consisting of 50 mM 2-(N-morpholino)ethanesulfonic acid (MES) at pH 6.5 with 10 mM CaCl2, 150 mM NaCl, 0.005% Brij-35 and 1% DMSO.
(§9) MMP Microfluorometric Profiling Assay. The assay is done with a final substrate concentration of 6 μM P218 and approximately 0.5 to 0.8 nM MMP with variable drug concentrations. The Hamilton is programmed to serially dilute up to 11 compounds from a 2.5 mM stock (100% DMSO) to 10× the final compounds concentrations in the assay. Initially, the instrument delivers various amounts of microfluoromentric reaction buffer (MRB) to a 96 tube rack of 1 ml Marsh dilution tubes. The instrument then picks up 20 μl of inhibitor (2.5 mM) from the sample rack and mixes it with a buffer in row A of the Marsh rack, resulting in a 50 μM drug concentration. The inhibitors are then serially diluted to 10, 5, 1, 0.2, 0.05 and 0.01 μM. […]

Assay [2] deals with T2, Human Recombinant Gelatinase B (MMP-9) (Homo sapiens, UniProt P14780).
T2 construct: made in house
Description: P218 quenched fluorescence assay (Microfluorometric Profiling Assay), MMP-9. The assay is classed as biochemical. Conditions: 6 μM P218, pH 6.5, 25 min at 37° C.; read-out: MMP-9 Fluorogenic IC50.
Description: as §1, §2, §3, §4, §5
Preparation of Human Recombinant Pro-Gelatinase B (MMP-9):
Recombinant Human Pro-MMP-9: Human pro-gelatinase B (pro-MMP-9) derived from U937 cDNA as described by Wilhelm, et al. J. Biol. Chem. 264, 17213 (1989) was expressed as the full-length form using a baculovirus protein expression system. The pro-enzyme was purified using methods previously described by Hibbs, et al. J. Biol. Chem. 260, 2493 (1984).
Activation of Pro-MMP-9: […] 20 μg/mL in 50 mM Tris at pH 7.4, 10 mM CaCl2, 150 mM NaCl, and 0.005% Brij-35 (MMP-9 activation buffer) was activated by incubation with 0.5 mM p-aminophenylmercuric acetate (APMA) for 3.5 h at 37° C. The enzyme was dialyzed against the same buffer to revmove the APMA.
as §6, §7, §8, §9

For assay [3], the target named is T3, Human Recombinant Gelatinase A (MMP-2) (Homo sapiens, UniProt P08253).
T3 sequence (P08253 110-660): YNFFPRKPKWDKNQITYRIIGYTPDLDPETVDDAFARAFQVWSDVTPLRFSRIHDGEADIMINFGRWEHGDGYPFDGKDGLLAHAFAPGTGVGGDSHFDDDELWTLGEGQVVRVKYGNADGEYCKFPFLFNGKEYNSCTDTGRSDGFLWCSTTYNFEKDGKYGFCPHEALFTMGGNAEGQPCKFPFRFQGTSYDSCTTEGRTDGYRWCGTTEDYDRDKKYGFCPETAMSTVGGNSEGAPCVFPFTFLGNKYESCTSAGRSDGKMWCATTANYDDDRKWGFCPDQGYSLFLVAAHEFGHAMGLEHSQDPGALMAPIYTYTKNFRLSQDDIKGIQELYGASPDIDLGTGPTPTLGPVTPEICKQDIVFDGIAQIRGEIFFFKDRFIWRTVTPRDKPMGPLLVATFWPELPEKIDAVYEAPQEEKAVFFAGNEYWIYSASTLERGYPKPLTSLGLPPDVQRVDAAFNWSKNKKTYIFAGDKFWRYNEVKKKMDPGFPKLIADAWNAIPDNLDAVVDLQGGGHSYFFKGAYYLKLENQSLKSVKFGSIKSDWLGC
In words: P218 quenched fluorescence assay (Microfluorometric Profiling Assay), MMP-2. Conditions: for pIC50: 6 μM P218, pH 6.5, 25 min at 37° C., read-out: MMP-2 Fluorogenic IC50; for inhibition at 5 µM: read-out: MMP-2 Fluorogenic, I = % inhibition. The assay is classed as biochemical.

In the next assay the test system is human colon tumor. Conditions: given intraperitoneally, orthotopic model, nude mice; cited from earlier work.
In assay [4] the test system is human ovarian carcinoma xenografts. Conditions: cited from earlier work.

T1 sequence (P08254 100-477): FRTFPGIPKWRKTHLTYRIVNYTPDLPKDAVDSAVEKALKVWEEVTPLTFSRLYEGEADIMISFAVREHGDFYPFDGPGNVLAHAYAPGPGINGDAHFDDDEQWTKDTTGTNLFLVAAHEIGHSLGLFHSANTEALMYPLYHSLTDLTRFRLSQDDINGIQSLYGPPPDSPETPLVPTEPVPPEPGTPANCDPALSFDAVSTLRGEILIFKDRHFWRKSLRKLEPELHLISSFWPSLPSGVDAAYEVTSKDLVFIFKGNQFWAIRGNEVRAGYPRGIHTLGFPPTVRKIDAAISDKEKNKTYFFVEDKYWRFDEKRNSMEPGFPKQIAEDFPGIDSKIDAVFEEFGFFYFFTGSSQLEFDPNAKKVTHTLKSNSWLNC
T2 sequence (P14780 107-707 limits assumed): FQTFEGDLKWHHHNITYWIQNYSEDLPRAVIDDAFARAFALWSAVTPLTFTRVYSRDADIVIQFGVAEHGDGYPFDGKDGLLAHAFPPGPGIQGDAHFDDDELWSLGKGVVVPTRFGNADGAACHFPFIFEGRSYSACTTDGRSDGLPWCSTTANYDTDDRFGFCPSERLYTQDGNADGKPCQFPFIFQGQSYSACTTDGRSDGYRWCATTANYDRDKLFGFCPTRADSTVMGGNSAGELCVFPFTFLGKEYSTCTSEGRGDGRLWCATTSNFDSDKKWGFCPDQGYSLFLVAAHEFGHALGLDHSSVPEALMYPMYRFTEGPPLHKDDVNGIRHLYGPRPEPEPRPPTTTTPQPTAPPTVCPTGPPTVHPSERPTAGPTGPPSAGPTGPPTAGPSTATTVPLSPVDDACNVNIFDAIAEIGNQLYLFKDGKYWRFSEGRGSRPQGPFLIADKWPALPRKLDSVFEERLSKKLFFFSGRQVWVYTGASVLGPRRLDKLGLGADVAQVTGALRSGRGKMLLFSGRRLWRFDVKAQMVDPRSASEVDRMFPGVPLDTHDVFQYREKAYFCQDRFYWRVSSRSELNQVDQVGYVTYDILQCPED

With `CCCCCCCCCCC(=O)CC(CCN1C(=O)c2ccccc2C1=O)C(=O)O` (stereo not drawn) [I, 1,3-dihydro-1,3-dioxo-α-(2-oxododecyl)-2H-isoindole-2-butanoic acid], the pIC50 in assay [1] is 5.32; in assay [2], 6.92; in assay [3] it was 5.89.

Take `CCCCCCCCCC(=O)CC(CCN1C(=O)c2ccccc2C1=O)C(=O)O` (stereo not drawn) [II, 1,3-dihydro-1,3-dioxo-α-(2-oxoundecyl)-2H-isoindole-2-butanoic acid]: the pIC50 in assay [1] is 5.30; in assay [2], 6.62; in assay [3], 5.73.

With `CCCCCCCCCCCC(=O)CC(CCN1C(=O)c2ccccc2C1=O)C(=O)O` (stereo not drawn) [III, 1,3-dihydro-1,3-dioxo-α-(2-oxotidecyl)-2H-isoindole-2-butanoic acid], the figures for the pIC50 in assay [1], in assay [2] and in assay [3] were 5.53, 7.04 and 6.12, respectively.

Take `CCCCCCCCCCCCC(=O)CC(CCN1C(=O)c2ccccc2C1=O)C(=O)O` (stereo not drawn) [IV, 1,3-dihydro-1,3-dioxo-α-(2-oxotetradecyl)-2H-isoindole-2-butanoicacid]: the pIC50 in assay [1] is 5.62; in assay [2], 6.81; in assay [3] it was 6.29.

For `COc1ccc(CC(=O)CC(CCc2ccccc2)C(=O)O)cc1` (stereo not drawn) [IX], the figures for the inhibition at 5 µM in assay [1] and in assay [3] were 9% and 18%, respectively.

As for `CCCCCCCCCCCCCC(=O)CC(CCN1C(=O)c2ccccc2C1=O)C(=O)O` (stereo not drawn) [V, 1,3-dihydro-1,3-dioxo-α-(2-oxopentadecyl)-2H-isoindole-2-butanoic acid], the values for the pIC50 in assay [1], in assay [2] and in assay [3] were 5.47, 6.82 and 5.96, respectively.

Take `CCCCCCCCCCCCCCC(=O)CC(CCN1C(=O)c2ccccc2C1=O)C(=O)O` (stereo not drawn) [VI, 1,3-dihydro-1,3-dioxo-α-(2-oxohexadecyl)-2H-isoindole-2-butanoic acid]: the inhibition at 5 µM in assay [1] was 45%. Besides, the pIC50 is 6.63 in assay [2] and 5.99 in assay [3].

Consider `COc1ccc(CCCC(=O)CC(CCc2ccccc2)C(=O)O)cc1` (stereo not drawn) [VII], for which the inhibition at 5 µM turned out to be 3% in assay [1] and 18% in assay [3].

Consider `CNC(=O)[C@H](Cc1ccccc1)NC(=O)[C@H](CC(C)C)[C@H](CSc1cccs1)C(=O)NO` [batimastat], for which the “inhibition of human colon tumor growth and spread” value in the assay with human colon tumor was “inhibits human colon tumor growth and spread”. In assay [4], the “survival of mice bearing human ovarian carcinoma xenografts” value is “prolongs the survival”.

Broadly, the pIC50 is the negative decadic logarithm of the IC50, by convention in mol/L. What is called inhibition is the percentage by which the read-out fell short of the control.
